{"source": "paper PMC10432884", "about": "(Clinical and Translational Science, 2023)", "key": {"[1]": {"tested_on": "healthy subjects"}, "[2]": {"tested_on": "rodents", "details": "in vivo; cited from earlier work"}, "[3]": {"tested_on": "healthy subjects", "test": "SAD phase CNS test battery", "format": "in vivo, human"}, "[4]": {"details": "MAD pooled zagociguat group (n = 32)"}, "[5]": {"details": "same subject, 2 mg q.d., day 30"}}, "note": "Where two headings read alike, the source gives them in different places."}
{"smiles": "Fc1ccccc1Cc1nc(-c2nc(C(F)(F)F)n[nH]2)cn2ccnc12", "note": "[zagociguat, 8‐(2‐fluorobenzyl)‐6‐(3‐(trifluoromethyl)‐1H‐1,2,4‐triazol‐5‐yl)imidazo[1,2‐a]pyrazine]", "values": [{"measurement": "Subjects discontinued from study drug due to ≥1 TEAE", "setting": "[1]; MAD 2 mg (n = 8)", "result": 0, "unit": "n"}, {"measurement": "Subjects with ≥1 SAE", "setting": "[1]; MAD 2 mg (n = 8)", "result": 0, "unit": "n"}, {"measurement": "Subjects with ≥1 TEAE", "setting": "[1]; MAD 2 mg (n = 8)", "result": "6 (75%) n (%)"}, {"measurement": "Subjects with ≥1 study drug related TEAE", "setting": "[1]; MAD 2 mg (n = 8)", "result": 6, "unit": "n"}, {"measurement": "TEAEs", "setting": "[1]; MAD 2 mg (n = 8)", "result": 17, "unit": "n"}, {"measurement": "Subjects discontinued from study drug due to ≥1 TEAE", "setting": "[1]; MAD 5 mg (n = 8)", "result": 0, "unit": "n"}, {"measurement": "Subjects with ≥1 SAE", "setting": "[1]; MAD 5 mg (n = 8)", "result": 0, "unit": "n"}, {"measurement": "Subjects with ≥1 TEAE", "setting": "[1]; MAD 5 mg (n = 8)", "result": "8 (100%) n (%)"}, {"measurement": "Subjects with ≥1 study drug related TEAE", "setting": "[1]; MAD 5 mg (n = 8)", "result": 7, "unit": "n"}, {"measurement": "TEAEs", "setting": "[1]; MAD 5 mg (n = 8)", "result": 27, "unit": "n"}, {"measurement": "Subjects discontinued from study drug due to ≥1 TEAE", "setting": "[1]; MAD 10 mg (n = 8)", "result": 0, "unit": "n"}, {"measurement": "Subjects with ≥1 SAE", "setting": "[1]; MAD 10 mg (n = 8)", "result": 0, "unit": "n"}, {"measurement": "Subjects with ≥1 TEAE", "setting": "[1]; MAD 10 mg (n = 8)", "result": "8 (100%) n (%)"}, {"measurement": "Subjects with ≥1 study drug related TEAE", "setting": "[1]; MAD 10 mg (n = 8)", "result": 5, "unit": "n"}, {"measurement": "TEAEs", "setting": "[1]; MAD 10 mg (n = 8)", "result": 19, "unit": "n"}, {"measurement": "Subjects with GI TEAEs", "setting": "[1]; MAD 10 mg group", "result": "five"}, {"measurement": "Subjects discontinued from study drug due to ≥1 TEAE", "setting": "[1]; MAD 15 mg (n = 8)", "result": 0, "unit": "n"}, {"measurement": "Subjects with ≥1 SAE", "setting": "[1]; MAD 15 mg (n = 8)", "result": 0, "unit": "n"}, {"measurement": "Subjects with ≥1 study drug related TEAE", "setting": "[1]; MAD 15 mg (n = 8)", "result": 5, "unit": "n"}, {"measurement": "TEAEs", "setting": "[1]; MAD 15 mg (n = 8)", "result": 18, "unit": "n"}, {"measurement": "Orthostatic hypotension events", "setting": "[1]; MAD phase", "result": "No orthostatic hypotension events"}, {"measurement": "Subjects discontinued from study drug due to ≥1 TEAE", "setting": "[1]; [4]", "result": 0, "unit": "n"}, {"measurement": "Subjects with ≥1 SAE", "setting": "[1]; [4]", "result": 0, "unit": "n"}, {"measurement": "Subjects with ≥1 study drug related TEAE", "setting": "[1]; [4]", "result": 23, "unit": "n"}, {"measurement": "TEAEs", "setting": "[1]; [4]", "result": 81, "unit": "n"}, {"measurement": "Tolerability", "setting": "[1]; multiple doses up to 15 mg q.d. for 14 days", "result": "well‐tolerated with no safety signals"}, {"measurement": "AST, peak", "setting": "[1]; one subject, 2 mg q.d., day 16 (after last dose), normal range < 35 U/L", "result": 49, "unit": "U/L"}, {"measurement": "ALT, peak", "setting": "[1]; one subject, 2 mg q.d., day 16 (after last dose), normal range < 45 U/L", "result": 92, "unit": "U/L"}, {"measurement": "GGT, peak", "setting": "[1]; one subject, 2 mg q.d., day 16 (after last dose), normal range < 55 U/L", "result": 22, "unit": "U/L"}, {"measurement": "ALT at follow-up", "setting": "[1]; [5]", "result": 49, "unit": "U/L"}, {"measurement": "AST at follow-up", "setting": "[1]; [5]", "result": 43, "unit": "U/L"}, {"measurement": "GGT at follow-up", "setting": "[1]; [5]", "result": 23, "unit": "U/L"}, {"measurement": "qEEG gamma band power", "setting": "[2]", "result": "increased gamma band power"}, {"measurement": "pEEG and CNS tests, differences between placebo and zagociguat groups", "setting": "[3]", "result": "No dose‐dependent or consistent statistically significant differences"}]}
